From PMC5485063 (Chemmedchem, 2017)
In brackets after ≈: the same amount, converted by molar mass.

Tests used:
[1] = logD by reversed‐phase HPLC; details: pH 7.5
rat hepatocytes = assay: High‐throughput metabolic stability assay, freshly harvested rat hepatocytes; details: predicted hepatic metabolic (blood) clearance
[2] = High‐throughput metabolic stability assay, pooled human liver microsomes; details: predicted hepatic metabolic (blood) clearance
Caco2 = assay: Bidirectional Caco2 permeability assay, 24‐well format; details: for P app A→B: Caco2, apical to basolateral; for permeability in either direction (P app A→B and P app B→A): Caco2, incubation period 90 min, possibly precipitation and sticking to plastics
CDK2 = CDK2 (Homo sapiens, UniProt P24941); assay: Biochemical in vitro kinase assay CDK2
[3] = Bidirectional Caco2 permeability assay, 24‐well format; details: human
A2780 cells = assay: In vitro proliferation assay, cultivated A2780 cells; format: cell-based; details: Homo sapiens, A2780, read-out: IC50 A2780
CDK9 = CDK9 (Homo sapiens, UniProt P50750); assay: Biochemical in vitro kinase assay CDK9
MOLM‐13 cells = assay: In vitro proliferation assay, MOLM‐13 cells; format: cell-based; details: Homo sapiens, MOLM-13, read-out: IC50 MOLM‐13
CDK6/CycD3 = CDK6/CycD3 (Homo sapiens, UniProt Q00534); assay: Biochemical assay at ProQinase, CDK6/CycD3
CDK4/CycD3 = CDK4/CycD3 (Homo sapiens, UniProt P11802); assay: Biochemical assay at ProQinase, CDK4/CycD3
[4] = estimated; cited from earlier work
MCF7 cells = assay: In vitro proliferation assay, human MCF7 cells stimulated with 17β‐estradiol; format: cell-based; details: MCF7, read-out: IC50 MCF7 E2 stim.
[5] = molecular target: T1, wild‐type estrogen receptor 1 (ESR1) (Homo sapiens, UniProt P03372); assay: Wild‐type estrogen receptor 1; format: cell-based
T1 sequence (P03372 1-595): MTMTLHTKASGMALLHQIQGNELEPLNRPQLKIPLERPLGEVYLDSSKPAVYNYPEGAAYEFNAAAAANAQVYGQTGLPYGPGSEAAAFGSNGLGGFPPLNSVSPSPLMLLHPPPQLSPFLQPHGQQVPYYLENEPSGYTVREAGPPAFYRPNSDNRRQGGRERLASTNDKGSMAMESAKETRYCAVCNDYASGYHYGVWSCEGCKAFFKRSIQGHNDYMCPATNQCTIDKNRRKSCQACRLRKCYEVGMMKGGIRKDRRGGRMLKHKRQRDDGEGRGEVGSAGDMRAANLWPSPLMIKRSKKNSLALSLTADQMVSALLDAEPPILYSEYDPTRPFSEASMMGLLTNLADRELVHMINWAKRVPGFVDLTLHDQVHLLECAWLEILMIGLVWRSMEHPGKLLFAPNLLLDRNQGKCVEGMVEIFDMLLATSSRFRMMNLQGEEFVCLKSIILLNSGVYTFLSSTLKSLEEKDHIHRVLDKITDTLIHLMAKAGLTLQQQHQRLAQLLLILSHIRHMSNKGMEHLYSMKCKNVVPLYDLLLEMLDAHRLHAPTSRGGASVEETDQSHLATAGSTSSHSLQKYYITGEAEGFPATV

Chain of CDK4/CycD3 (P11802 whole entry): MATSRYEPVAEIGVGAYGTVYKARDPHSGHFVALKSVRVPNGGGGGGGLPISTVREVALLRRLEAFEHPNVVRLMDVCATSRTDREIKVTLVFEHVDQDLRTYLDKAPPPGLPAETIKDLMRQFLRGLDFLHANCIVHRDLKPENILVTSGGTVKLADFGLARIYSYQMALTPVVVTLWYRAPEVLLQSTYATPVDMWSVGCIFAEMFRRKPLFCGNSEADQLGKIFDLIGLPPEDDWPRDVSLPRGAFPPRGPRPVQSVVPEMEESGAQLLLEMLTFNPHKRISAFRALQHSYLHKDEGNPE
Chain of CDK4/CycD3 (P30281 whole entry partner): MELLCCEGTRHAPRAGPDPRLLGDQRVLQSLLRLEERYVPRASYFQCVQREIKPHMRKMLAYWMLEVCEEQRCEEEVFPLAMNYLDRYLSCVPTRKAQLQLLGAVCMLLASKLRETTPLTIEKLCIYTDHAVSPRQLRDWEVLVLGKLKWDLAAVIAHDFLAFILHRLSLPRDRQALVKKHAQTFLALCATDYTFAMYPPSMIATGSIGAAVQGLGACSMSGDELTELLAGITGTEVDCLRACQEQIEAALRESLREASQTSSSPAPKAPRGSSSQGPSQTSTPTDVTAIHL
Chain of CDK6/CycD3 (Q00534 whole entry): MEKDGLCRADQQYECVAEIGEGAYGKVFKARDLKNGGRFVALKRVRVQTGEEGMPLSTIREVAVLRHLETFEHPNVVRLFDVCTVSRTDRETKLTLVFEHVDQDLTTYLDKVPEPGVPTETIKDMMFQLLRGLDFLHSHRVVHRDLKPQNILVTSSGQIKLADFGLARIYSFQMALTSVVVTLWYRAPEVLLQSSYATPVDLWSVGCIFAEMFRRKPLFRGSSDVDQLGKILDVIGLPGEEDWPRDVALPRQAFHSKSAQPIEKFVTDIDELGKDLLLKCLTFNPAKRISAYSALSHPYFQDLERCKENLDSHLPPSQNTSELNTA
Chain of CDK6/CycD3 (P30281 whole entry partner): as the sequence (P30281 whole entry partner) above
Chain of CDK9 (P50750 whole entry): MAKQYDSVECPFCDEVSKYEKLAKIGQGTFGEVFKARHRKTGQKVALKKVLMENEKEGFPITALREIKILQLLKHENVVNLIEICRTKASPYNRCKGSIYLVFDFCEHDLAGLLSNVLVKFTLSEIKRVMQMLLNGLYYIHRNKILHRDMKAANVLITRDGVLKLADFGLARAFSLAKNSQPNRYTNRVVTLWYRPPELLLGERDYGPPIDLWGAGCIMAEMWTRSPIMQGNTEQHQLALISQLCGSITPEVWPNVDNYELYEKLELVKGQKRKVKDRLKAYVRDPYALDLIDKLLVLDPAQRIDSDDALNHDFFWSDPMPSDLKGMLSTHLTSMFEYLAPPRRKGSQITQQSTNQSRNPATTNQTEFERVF
Chain of CDK9 (O60563 whole entry partner): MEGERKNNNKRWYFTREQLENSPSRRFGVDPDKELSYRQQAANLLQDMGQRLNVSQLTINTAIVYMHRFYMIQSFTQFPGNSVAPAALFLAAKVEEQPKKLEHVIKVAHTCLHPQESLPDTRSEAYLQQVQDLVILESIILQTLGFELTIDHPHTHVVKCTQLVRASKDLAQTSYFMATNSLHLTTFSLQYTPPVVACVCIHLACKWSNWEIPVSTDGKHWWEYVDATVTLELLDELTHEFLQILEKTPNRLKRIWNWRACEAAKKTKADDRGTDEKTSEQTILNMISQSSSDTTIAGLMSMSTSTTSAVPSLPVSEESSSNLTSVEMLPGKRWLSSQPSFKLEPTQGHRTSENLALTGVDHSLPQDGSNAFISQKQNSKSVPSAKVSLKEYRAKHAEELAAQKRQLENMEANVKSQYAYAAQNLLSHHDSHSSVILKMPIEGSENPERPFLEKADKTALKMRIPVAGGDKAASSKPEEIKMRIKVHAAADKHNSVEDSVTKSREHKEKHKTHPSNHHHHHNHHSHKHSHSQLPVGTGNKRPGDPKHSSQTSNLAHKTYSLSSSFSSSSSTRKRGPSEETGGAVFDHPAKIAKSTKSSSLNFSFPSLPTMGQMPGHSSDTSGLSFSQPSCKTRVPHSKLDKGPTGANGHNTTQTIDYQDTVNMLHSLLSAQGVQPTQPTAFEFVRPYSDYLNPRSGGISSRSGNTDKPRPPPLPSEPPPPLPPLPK

SMILES | chromatographic logD [1] | CLb rHep (rat hepatocytes) | CLb hLMs [2] | P app A→B (Caco2) | IC50 (CDK2) | efflux ratio at 90 min ([3]; Caco-2) | IC50 (A2780 cells) | IC50 (CDK9) | IC50 (MOLM‐13 cells) | IC50 (CDK6/CycD3) | IC50 (CDK4/CycD3) | aqueous solubility [4] | IC50 (MCF7 cells) | permeability in either direction (P app A→B and P app B→A) (Caco2) | ER (Caco2; Caco2 efflux ratio, P app B→A/P app A→B) | efflux ratio at 90 min ([3]; Caco-2, ER, Caco2 efflux ratio, P app B→A/P app A→B) | IC50 [5]
CCCc1nc(C)c2c(=O)[nH]c(-c3cc(S(=O)(=O)N4CCN(CC)CC4)ccc3OCC)nn12 [vardenafil, reference compound] | 2.6 | 50 mL/min/kg | 18.3 mL/min/kg | 20.6 ×10⁻⁶ cm/s | – | – | – | – | – | – | – | – | – | – | – | – | –
N=S1(=O)CCC(NC(=O)c2n[nH]cc2NC(=O)c2c(Cl)cccc2Cl)CC1 (stereo not drawn) [compound 15, 4‐(2,6‐Dichlorobenzamido)‐N‐(1‐imino‐1‐oxo‐1λ^6‐thian‐4‐yl)‐1H‐pyrazole‐3‐carboxamide] | 1.6 | 1 mL/min/kg | 1 mL/min/kg | 0.14 ×10⁻⁶ cm/s | 522 nM | 37 | 351 nM | 124 nM | – | – | – | – | – | – | – | – | –
CN(C)C(=O)c1cc2cnc(Nc3ccc(N4CCS(=N)(=O)CC4)cn3)nc2n1C1CCCC1 [compound 26, 7‐Cyclopentyl‐2‐{[5‐(1‐imino‐1‐oxo‐1λ^6‐thiomorpholin‐4‐yl)pyridin‐2‐yl]amino}‐N,N ‐dimethyl‐7H‐pyrrolo[2,3‐d]pyrimidine‐6‐carboxamide] | 1.8 | 18.3 mL/min/kg | 3.5 mL/min/kg | 2.2 ×10⁻⁶ cm/s | – | 11 | – | – | 1150 nM | > 1000 nM | 216 nM | – | – | – | – | – | –
C[C@]12CC[C@@H]3c4ccc(O)cc4C[C@@H](CCCCCCCCC[S+]([O-])CCCC(F)(F)C(F)(F)F)[C@H]3[C@@H]1CC[C@@H]2O (stereo partly drawn) [fulvestrant, reference compound] | 4.2 | 58.3 mL/min/kg | 20 mL/min/kg | – | – | – | – | – | – | – | – | ~0.01 µg/mL (≈ 0.0165 µM) | 9.2 nM | no permeability in either direction | – | – | –
O=C(NC1CCNCC1)c1n[nH]cc1NC(=O)c1c(Cl)cccc1Cl [AT7519, reference compound] | 1.3 | 28.3 mL/min/kg | 4 mL/min/kg | 0.1 ×10⁻⁶ cm/s | – | – | 131 nM | – | – | – | – | – | – | – | – | – | –
CN(C)C(=O)c1cc2cnc(Nc3ccc(N4CCNCC4)cn3)nc2n1C1CCCC1 [ribociclib, reference compound] | 1.7 | 38.3 mL/min/kg | 8.67 mL/min/kg | 13.5 ×10⁻⁶ cm/s | – | – | – | – | 89 nM | – | – | – | – | – | – | – | –
CCCc1nc(C)c2c(=O)[nH]c(-c3cc(S(=O)(=O)N4CCS(=N)(=O)CC4)ccc3OCC)nn12 [compound 29, 4‐(4‐Ethoxy‐3‐{5‐methyl‐4‐oxo‐7‐propyl‐3 H,4H‐imidazo[4,3‐f][1,2,4]triazin‐2‐yl}benzenesulfonyl)‐1‐imino‐1λ^6‐thiomorpholin‐1‐one] | 2 | 35 mL/min/kg | 7.17 mL/min/kg | – | – | – | – | – | – | – | – | – | – | – | 288 | > 200 | –
CC(=O)c1c(C)c2cnc(Nc3ccc(N4CCNCC4)cn3)nc2n(C2CCCC2)c1=O [palbociclib, reference compound] | 1.9 | 21.7 mL/min/kg | 7.5 mL/min/kg | 7 ×10⁻⁶ cm/s | – | – | – | – | 41 nM | – | – | – | – | – | – | – | –
C[C@]12CC[C@@H]3c4ccc(O)cc4C[C@@H](CCCCCCCCC[S@](=N)(=O)CCCC(F)(F)C(F)(F)F)[C@H]3[C@@H]1CC[C@@H]2O [compound 33, 7α‐{9‐[(S)‐(4,4,5,5,5‐Pentafluoropentyl)sulfonimidoyl]nonyl}estra‐1,3,5(10)‐triene‐3,17β‐diol] | 3.8 | 58.3 mL/min/kg | 18.3 mL/min/kg | – | – | – | – | – | – | – | – | – | 7.1 nM | no permeability in either direction | – | – | 1.8 nM
CC(=O)c1c(C)c2cnc(Nc3ccc(N4CCS(=N)(=O)CC4)cn3)nc2n(C2CCCC2)c1=O [compound 23, 4‐[6‐({6‐Acetyl‐8‐cyclopentyl‐5‐methyl‐7‐oxo‐7 H,8H‐pyrido[2,3‐d]pyrimidin‐2‐yl}amino)pyridin‐3‐yl]‐1‐imino‐1λ^6‐thiomorpholin‐1‐one] | 2 | 18.3 mL/min/kg | 4 mL/min/kg | 2.5 ×10⁻⁶ cm/s | – | 9.1 | – | – | 128 nM | 240 nM | 101 nM | – | – | – | – | – | –
